Measurements from ChEMBL document CHEMBL3045550, “Design, synthesis and biological activities of new strobilurin derivatives containing substituted pyrazoles” (2010).

Legend:
Format in all cases: functional
[1] = tested on: Pseudoperonospora cubensis; assay: Antifungal activity against Pseudoperonospora cubensis infected cucumber leaves assessed as disease control at 25 mg/l after 5 days relative to control
[2] = tested on: Pseudoperonospora cubensis; assay: Antifungal activity against Pseudoperonospora cubensis infected cucumber leaves assessed as disease control at 3.12 mg/l after 5 days relative to control
Botrytis cinerea = assay: Antifungal activity against Botryotinia fuckeliana infected cucumber leaves assessed as disease control at 400 mg/l after 4 days relative to control
[3] = tested on: Blumeria graminis f. sp. tritici; assay: Antifungal activity against Blumeria graminis f. sp. tritici infected seven-day-old wheat seedlings assessed as disease control at 400 mg/l after 7 days relative to control
Tetranychus cinnabarinus = assay: Acaricidal activity against Tetranychus cinnabarinus (carmine spider mite) in kidney bean plants assessed as mortality at 600 mg/l after 48 hr relative to control
[4] = tested on: Pseudoperonospora cubensis; assay: Antifungal activity against Pseudoperonospora cubensis infected cucumber leaves assessed as disease control at 6.25 mg/l after 5 days relative to control
[5] = tested on: Pseudoperonospora cubensis; assay: Antifungal activity against Pseudoperonospora cubensis infected cucumber leaves assessed as disease control at 400 mg/l after 5 days relative to control
Pyricularia oryzae = assay: Antifungal activity against Magnaporthe oryzae infected 12 day old rice plant assessed as disease control at 400 mg/l after 6 days relative to control
[6] = tested on: Blumeria graminis f. sp. tritici; assay: Antifungal activity against Blumeria graminis f. sp. tritici infected seven-day-old wheat seedlings assessed as disease control at 12.5 mg/l after 7 days relative to control
[7] = tested on: Blumeria graminis f. sp. tritici; assay: Antifungal activity against Blumeria graminis f. sp. tritici infected seven-day-old wheat seedlings assessed as disease control at 1.56 mg/l after 7 days relative to control

Structure (SMILES)	Activity [1] [%]	Activity [2] [%]	Activity (Botrytis cinerea) [%]	Activity [3] [%]	Activity (Tetranychus cinnabarinus) [%]	Activity [4] [%]	Activity [5] [%]	Activity (Pyricularia oryzae) [%]	Activity [6] [%]	Activity [7] [%]
CO/C=C(/C(=O)OC)c1ccccc1COc1cc(-c2ccc(F)cc2)nn1C [METHYL 2-(2-((3-(4-FLUOROPHENYL)-1-METHYL-1H-PYRAZOL-5-YLOXY)METHYL)PHENYL)-3-METHOXYACRYLATE]	100	75	100	30	0	100	100	50	–	–
CO/C=C(/C(=O)OC)c1ccccc1COc1cc(-c2ccc(SC)cc2)nn1C [METHYL 3-METHOXY-2-(2-((1-METHYL-3-(4-(METHYLTHIO)PHENYL)-1H-PYRAZOL-5-YLOXY)METHYL)PHENYL)ACRYLATE]	100	0	0	0	0	35	100	90	–	–
CO/C=C(/C(=O)OC)c1ccccc1COc1cc(-c2ccc(OCC(F)(F)F)cc2)nn1C	90	0	0	60	0	0	100	0	–	–
CO/C=C(/C(=O)OC)c1ccccc1COc1c(C)c(-c2ccc(Cl)cc2)nn1C [METHYL 2-(2-((3-(4-CHLOROPHENYL)-1,4-DIMETHYL-1H-PYRAZOL-5-YLOXY)METHYL)PHENYL)-3-METHOXYACRYLATE]	0	0	0	100	60	0	95	0	100	100
CO/C=C(/C(=O)OC)c1ccccc1COc1cc(-c2ccccc2)nn1C [METHYL 3-METHOXY-2-(2-((1-METHYL-3-PHENYL-1H-PYRAZOL-5-YLOXY)METHYL)PHENYL)ACRYLATE]	0	0	0	100	0	0	100	0	0	0
CO/C=C(/C(=O)OC)c1ccccc1COc1cc(-c2ccc(Oc3ccccc3)cc2)nn1C	100	0	0	0	0	0	100	0	–	–
CO/C=C(/C(=O)OC)c1ccccc1COc1cc(-c2ccc(OC)cc2)nn1C [METHYL 3-METHOXY-2-(2-((3-(4-METHOXYPHENYL)-1-METHYL-1H-PYRAZOL-5-YLOXY)METHYL)PHENYL)ACRYLATE]	90	0	50	100	0	15	95	100	65	0
CO/C=C(/C(=O)OC)c1ccccc1COc1cc(-c2ccc([N+](=O)[O-])cc2)nn1C	100	50	0	100	0	70	100	99	100	95
CO/N=C(/C(=O)OC)c1ccccc1COc1ccccc1C [KRESOXIM-METHYL]	35	0	100	100	–	0	–	100	100	100
CO/C=C(/C(=O)OC)c1ccccc1COc1cc(-c2ccc(Cl)cc2Cl)nn1C [METHYL 2-(2-((3-(2,4-DICHLOROPHENYL)-1-METHYL-1H-PYRAZOL-5-YLOXY)METHYL)PHENYL)-3-METHOXYACRYLATE]	100	20	0	100	0	45	100	0	100	0
CO/C=C(/C(=O)OC)c1ccccc1Oc1cc(Oc2ccccc2C#N)ncn1 [AZOXYSTROBIN]	100	100	100	100	–	95	100	100	100	60
CO/C=C(/C(=O)OC)c1ccccc1COc1c(C)c(-c2ccc(OCC(F)(F)F)cc2)nn1C [METHYL 2-(2-((1,4-DIMETHYL-3-(4-(2,2,2-TRIFLUOROETHOXY)PHENYL)-1H-PYRAZOL-5-YLOXY)METHYL)PHENYL)-3-METHOXYACRYLATE]	40	0	100	100	60	0	100	100	100	65
CO/C=C(/C(=O)OC)c1ccccc1COc1cc(-c2ccc(C(C)(C)C)cc2)nn1C [METHYL 2-(2-((3-(4-TERT-BUTYLPHENYL)-1-METHYL-1H-PYRAZOL-5-YLOXY)METHYL)PHENYL)-3-METHOXYACRYLATE]	15	–	50	70	0	–	100	100	–	–
CO/C=C(/C(=O)OC)c1ccccc1COc1cc(-c2ccc(-c3ccc(Cl)cc3)cc2)nn1C	100	0	0	100	0	0	100	0	95	0
CO/C=C(/C(=O)OC)c1ccccc1COc1cc(-c2ccccc2OC)nn1C	50	0	50	100	0	0	100	100	100	35
CO/C=C(/C(=O)OC)c1ccccc1COc1cc(-c2ccc(C)cc2)nn1C [METHYL 3-METHOXY-2-(2-((1-METHYL-3-P-TOLYL-1H-PYRAZOL-5-YLOXY)METHYL)PHENYL)ACRYLATE]	0	0	0	100	0	0	100	0	35	0
